The text below walks through data of patent US11555055B2, “Peptide inhibitors of insulin-degrading enzyme” (The Regents of the University of California, priority 2017, dated 2023).

Broadly, the Ki is the dissociation constant of the complex between target and ligand, obtained from inhibition or displacement. A high value points to weaker binding.

In assay [1] the target is T1, IDE (Homo sapiens, UniProt P14735).
T1 construct: made in house; host or cells: bacteria
T1 sequence (P14735 1-1019): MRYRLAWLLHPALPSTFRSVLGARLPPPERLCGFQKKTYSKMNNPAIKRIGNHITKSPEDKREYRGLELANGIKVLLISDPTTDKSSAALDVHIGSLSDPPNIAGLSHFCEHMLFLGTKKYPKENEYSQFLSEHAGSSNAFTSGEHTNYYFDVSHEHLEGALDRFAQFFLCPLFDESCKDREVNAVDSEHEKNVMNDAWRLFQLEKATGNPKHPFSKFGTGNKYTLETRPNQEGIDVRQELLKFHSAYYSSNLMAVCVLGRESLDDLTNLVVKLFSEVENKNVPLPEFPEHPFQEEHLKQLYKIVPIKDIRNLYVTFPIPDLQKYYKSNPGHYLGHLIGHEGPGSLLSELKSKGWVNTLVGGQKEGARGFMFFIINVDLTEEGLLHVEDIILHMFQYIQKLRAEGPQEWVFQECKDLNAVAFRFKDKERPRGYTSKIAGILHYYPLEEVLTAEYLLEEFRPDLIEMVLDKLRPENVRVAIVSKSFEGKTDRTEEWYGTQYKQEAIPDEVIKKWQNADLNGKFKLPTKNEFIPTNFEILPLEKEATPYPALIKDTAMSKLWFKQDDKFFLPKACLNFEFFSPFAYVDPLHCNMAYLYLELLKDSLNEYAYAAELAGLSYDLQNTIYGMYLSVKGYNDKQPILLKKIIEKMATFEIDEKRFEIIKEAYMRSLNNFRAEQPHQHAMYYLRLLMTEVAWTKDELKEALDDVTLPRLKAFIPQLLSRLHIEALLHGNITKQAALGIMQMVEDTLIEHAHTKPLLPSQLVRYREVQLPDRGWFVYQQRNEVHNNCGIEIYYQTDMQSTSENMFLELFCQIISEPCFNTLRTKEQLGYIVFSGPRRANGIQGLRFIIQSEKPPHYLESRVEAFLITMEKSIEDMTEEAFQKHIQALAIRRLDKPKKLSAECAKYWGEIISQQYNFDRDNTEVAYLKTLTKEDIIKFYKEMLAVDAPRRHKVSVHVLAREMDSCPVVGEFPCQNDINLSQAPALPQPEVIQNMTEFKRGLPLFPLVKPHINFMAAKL
The experiment in a line: IDE protease activity assay with FRET1 substrate. Format: biochemical. As to conditions: Ki converted from IC50 with the Cheng-Prusoff equation.

The target of assay [2] is T1, IDE. The experiment in a line: Vulnerability of peptides to degradation by IDE: potency after 0 or 4 h pre-incubation with IDE, FRET1 assay. Format: biochemical. As to conditions: 4-h incubation with IDE. The source says:
FIG. 2. Vulnerability of peptides to degradation by IDE assessed by activity assays.
Because IDE is a peptidase, it was critical to determine whether the peptides were degraded by IDE over time. […] Because this peptide is capable of forming a disulfide bond between its two cysteines, but was not deliberately cyclized prior to testing, we suspect that the peptide (and related variants) may have cyclized over time, contributing to its stability. […]
Degradation Assays—IDE activity was quantified by monitoring the degradation of (7-methoxycoumarin-4-yl)acetic acid-[…](2,4-dinitrophenyl) (FRET1, 5 μM) (49,55), fluoresceinated and biotinylated amyloid β-protein (FAβB; 500 nM) or recombinant human insulin (50 nM) in PBS supplemented with 0.05% BSA. FRET1 degradation was measured by changes in fluorescence (λex=340 nm, λem=420 nm); FAβB degradation was monitored by fluorescence polarization (λex=488 nm, λem=525 nm), as described (56); and insulin degradation was quantified by ELISA. […] For quantitation of insulin degradation in primary murine skin fibroblasts, cells (1×10^5/well) were plated in 96-well plates and maintained in DMEM supplemented with 10% fetal bovine serum (FBS), 2 mM glutamine, penicillin and streptomycin. […]

Where a SMILES comes first, the peptide text is derived from it. Bridges are numbered along the chain shown (N, C = ends).

As to `CC(C)C[C@H](NC(=O)[C@H](CO)NC(=O)[C@@H](N)CCC(N)=O)C(=O)N1CCC[C@H]1C(=O)N[C@@H](Cc1c[nH]c2ccccc12)C(=O)N[C@H]1CSSC[C@@H](C(=O)N[C@H](C(=O)N[C@H](C(N)=O)[C@@H](C)O)C(C)C)NC(=O)[C@H](Cc2c[nH]cn2)NC(=O)[C@@H]2CCCN2C(=O)[C@H](Cc2ccc(O)cc2)NC1=O` [Peptide P12-3A] (H-QSLPWCYPHCVT-NH2; disulfide 6-10 (inferred)), the affinity on IDE [1], expressed as Ki, was 10 ± 0.4 µM. Also, the “increase in potency at the 4-h time point relative to t=0” value at IDE [2] is 1 fold.
